“Also recorded” adds a separate entry of the source.
Key:
Format in all cases: cell-based
[1] = molecular target: α4β2 nAChR from concatenated β-6-α alone (Homo sapiens, UniProt P17787+P43681); assay: two-electrode voltage-clamp, oocytes, β-6-α alone
[2] = molecular target: α4β2 nAChR from β-21a-α^VFL-α-β-α (Homo sapiens, UniProt P17787+P43681, H142V/Q150F/T152L); assay: two-electrode voltage-clamp, oocytes, pentameric β-21a-α^VFL-α-β-α
[3] = molecular target: α4β2 nAChR from β-3a-α^VFL-α-β-α (Homo sapiens, UniProt P17787+P43681, H142V/Q150F/T152L); assay: two-electrode voltage-clamp, oocytes, pentameric β-3a-α^VFL-α-β-α
[4] = molecular target: α4β2 nAChR from β-0a-α and α4^VFL (1:1) (Homo sapiens, UniProt P17787+P43681, H142V/Q150F/T152L); assay: two-electrode voltage-clamp, oocytes, β-0a-α and α4^VFL; conditions: β-0a-α + α4^VFL; coapplied with 10 µM ACh
[5] = molecular target: α4β2 nAChR from β-6-α-9-β-6-α alone (Homo sapiens, UniProt P17787+P43681); assay: two-electrode voltage-clamp, oocytes, tetrameric β-6-α-9-β-6-α alone
[6] = molecular target: α4β2 nAChR from β-21a-α-α-β-α (Homo sapiens, UniProt P17787+P43681); assay: two-electrode voltage-clamp, oocytes, pentameric β-21a-α-α-β-α
[7] = molecular target: α4β2 nAChR from β-3a-α-β-α-α^VFL (Homo sapiens, UniProt P17787+P43681, H142V/Q150F/T152L); assay: two-electrode voltage-clamp, oocytes, pentameric β-3a-α-β-α-α^VFL
[8] = molecular target: α4β2 nAChR from β-6a-α and α4^VFL (1:1) (Homo sapiens, UniProt P17787+P43681, H142V/Q150F/T152L); assay: two-electrode voltage-clamp, oocytes, β-6a-α and α4^VFL
[9] = molecular target: α4β2 nAChR from β-3a-α and α4^VFL (1:1) (Homo sapiens, UniProt P17787+P43681, H142V/Q150F/T152L); assay: two-electrode voltage-clamp, oocytes, β-3a-α and α4^VFL
[10] = molecular target: α4β2 nAChR from β-21a-α-β-α-α^VFL (Homo sapiens, UniProt P17787+P43681, H142V/Q150F/T152L); assay: two-electrode voltage-clamp, oocytes, pentameric β-21a-α-β-α-α^VFL
[11] = molecular target: α4β2 nAChR from β-6-α and α4^VFL (1:1) (Homo sapiens, UniProt P17787+P43681, H142V/Q150F/T152L); assay: two-electrode voltage-clamp, oocytes, β-6-α and α4^VFL 1:1; conditions: β-6-α + α4^VFL 1:1; […] NS9283 + 10 µM ACh, % change from AChcontrol current
[12] = molecular target: α4β2 nAChR from β-3a-α^VFL-β-α-α (Homo sapiens, UniProt P17787+P43681, H142V/Q150F/T152L); assay: two-electrode voltage-clamp, oocytes, pentameric β-3a-α^VFL-β-α-α
[13] = molecular target: (α4^VFL)3(β2)2 nAChR from α4^VFL and β2 (10:1) (Homo sapiens, UniProt P17787+P43681, H142V/Q150F/T152L); assay: two-electrode voltage-clamp, X. laevis oocytes, α4^VFL and β2 cRNA 10:1; conditions: α4^VFL+β2 10:1; coapplied with 10 µM ACh
[14] = molecular target: α4β2 nAChR from β-9a-α and α4^VFL (1:1) (Homo sapiens, UniProt P17787+P43681, H142V/Q150F/T152L); assay: two-electrode voltage-clamp, oocytes, β-9a-α and α4^VFL
[15] = molecular target: α4β2 nAChR from β-9a-α alone (Homo sapiens, UniProt P17787+P43681); assay: two-electrode voltage-clamp, oocytes, β-9a-α alone
[16] = molecular target: α4β2 nAChR from β-3a-α-β-α-α (Homo sapiens, UniProt P17787+P43681); assay: two-electrode voltage-clamp, oocytes, pentameric β-3a-α-β-α-α
[17] = molecular target: α4β2 nAChR from β-6a-α alone (Homo sapiens, UniProt P17787+P43681); assay: two-electrode voltage-clamp, oocytes, β-6a-α alone
[18] = molecular target: α4β2 nAChR from β-9a-α and α4 (1:1) (Homo sapiens, UniProt P17787+P43681); assay: two-electrode voltage-clamp, oocytes, β-9a-α and α4; conditions: NS9283 pEC50, β-9a-α + α4; coapplied with 10 µM ACh
[19] = molecular target: α4β2 nAChR from β-21a-α-β-α-α (Homo sapiens, UniProt P17787+P43681); assay: two-electrode voltage-clamp, oocytes, pentameric β-21a-α-β-α-α
[20] = molecular target: α4β2 nAChR from β-6-α and α4 (1:1) (Homo sapiens, UniProt P17787+P43681); assay: two-electrode voltage-clamp, oocytes, β-6-α and α4; conditions: β-6-α + α4; […] NS9283 + 10 µM ACh, % change from AChcontrol current
[21] = molecular target: α4β2 nAChR from β-6-α-9-β-6-α and α4^VFL (1:1) (Homo sapiens, UniProt P17787+P43681, H142V/Q150F/T152L); assay: two-electrode voltage-clamp, oocytes, β-6-α-9-β-6-α and α4^VFL 1:1; conditions: NS9283 pEC50, β-6-α-9-β-6-α + α4^VFL 1:1; coapplied with 10 µM ACh

Sequence of α4β2 nAChR from β-3a-α-β-α-α (P17787 26-502): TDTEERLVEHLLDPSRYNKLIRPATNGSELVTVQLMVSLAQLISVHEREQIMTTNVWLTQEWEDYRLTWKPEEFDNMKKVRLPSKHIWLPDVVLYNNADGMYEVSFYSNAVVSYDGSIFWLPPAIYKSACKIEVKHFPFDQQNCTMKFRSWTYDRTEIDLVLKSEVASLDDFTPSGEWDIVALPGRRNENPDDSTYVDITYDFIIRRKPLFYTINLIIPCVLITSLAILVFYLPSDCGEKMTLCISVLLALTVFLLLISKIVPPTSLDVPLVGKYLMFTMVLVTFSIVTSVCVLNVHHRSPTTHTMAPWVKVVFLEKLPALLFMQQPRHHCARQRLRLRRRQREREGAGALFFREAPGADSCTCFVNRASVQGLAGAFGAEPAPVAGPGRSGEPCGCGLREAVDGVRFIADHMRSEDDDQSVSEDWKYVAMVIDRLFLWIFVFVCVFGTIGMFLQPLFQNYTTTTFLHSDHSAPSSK
Sequence of α4β2 nAChR from β-3a-α-β-α-α (P43681 27-627): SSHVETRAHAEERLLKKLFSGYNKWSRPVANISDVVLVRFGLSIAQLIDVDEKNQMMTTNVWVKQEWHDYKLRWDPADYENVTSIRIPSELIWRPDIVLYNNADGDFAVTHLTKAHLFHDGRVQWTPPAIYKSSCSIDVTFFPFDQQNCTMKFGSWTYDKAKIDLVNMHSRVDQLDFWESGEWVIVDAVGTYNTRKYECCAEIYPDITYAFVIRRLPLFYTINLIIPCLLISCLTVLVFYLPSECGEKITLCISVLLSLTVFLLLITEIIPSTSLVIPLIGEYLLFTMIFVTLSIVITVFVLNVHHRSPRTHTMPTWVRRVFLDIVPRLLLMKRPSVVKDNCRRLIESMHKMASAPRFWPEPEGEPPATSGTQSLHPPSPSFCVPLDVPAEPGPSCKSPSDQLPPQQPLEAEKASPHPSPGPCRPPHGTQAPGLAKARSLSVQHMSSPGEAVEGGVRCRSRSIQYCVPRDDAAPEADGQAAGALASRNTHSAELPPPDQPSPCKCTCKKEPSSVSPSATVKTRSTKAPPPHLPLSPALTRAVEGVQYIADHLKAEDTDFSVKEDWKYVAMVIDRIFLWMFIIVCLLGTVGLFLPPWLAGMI
Sequence of α4β2 nAChR from β-3a-α-β-α-α (P17787 26-502): as the sequence (P17787 26-502) above
Sequence of α4β2 nAChR from β-3a-α-β-α-α (P43681 27-627): as the sequence (P43681 27-627) above
Sequence of α4β2 nAChR from β-3a-α-β-α-α (P43681 27-627): as above
Sequence of α4β2 nAChR from β-6-α-9-β-6-α alone (P43681 27-627): as above
Sequence of α4β2 nAChR from β-6-α-9-β-6-α alone (P17787 26-502): as the sequence (P17787 26-502) above
Sequence of (α4^VFL)3(β2)2 nAChR from α4^VFL and β2 (10:1) (P43681 27-627 H142V/Q150F/T152L): as the sequence (P43681 27-627) above, with H116V, Q124F, T126L counted along it
Sequence of (α4^VFL)3(β2)2 nAChR from α4^VFL and β2 (10:1) (P17787 26-502): as the sequence (P17787 26-502) above

For `N#Cc1cccc(-c2nc(-c3cccnc3)no2)c1` [NS9283, 3-(3-(pyridine-3-yl)-1,2,4-oxadiazol-5-yl)benzonitrile], which EC50 [1] is on record?
The EC50 was 12.6 µM.

And the Emax ([1]; read-out: NS9283 Emax)?
The Emax was 900 ± 140%.

And the “NS9283 E31.6 µM” value ([1]; β-6-α alone, […] NS9283 + 10 µM ACh, % change from AChcontrol current)?
The value was 640 ± 90%.

What about the EC50 [2] of the same compound?
The EC50 was 6.31 µM.

What about the Emax ([2]; read-out: NS9283 Emax) of the same compound?
Its Emax is 102 ± 10%.

What about the “NS9283 E31.6 µM” value ([2]; β-21a-α^VFL-α-β-α, […] NS9283 + 10 µM ACh, % change from AChcontrol current) of the same compound?
Its value is 85 ± 10%.

What about the EC50 ([3]; NS9283 pEC50, β-3a-α^VFL-α-β-α, coapplied with 10 µM ACh) of the same compound?
The EC50 was 7.94 µM.

What about the Emax ([3]; read-out: NS9283 Emax) of the same compound?
Its Emax is 340 ± 20%.

And the “NS9283 E31.6 µM” value ([3]; β-3a-α^VFL-α-β-α, […] NS9283 + 10 µM ACh, % change from AChcontrol current)?
The value was 270 ± 10%.

What about the “NS9283 Emax” value [4] of the same compound?
Its value is “No hint of NS9283 enhancement; also recorded: No pos. pot”.

And the EC50 [5]?
The EC50 was 10 µM.

And the Emax ([5]; read-out: NS9283 Emax)?
Its Emax is 220 ± 30%.

What about the “NS9283 E31.6 µM” value ([5]; β-6-α-9-β-6-α alone, […] NS9283 + 10 µM ACh, % change from AChcontrol current) of the same compound?
The value was 170 ± 20%.

And the EC50 [6]?
The EC50 was 5.01 µM.

What about the Emax ([6]; read-out: NS9283 Emax) of the same compound?
The Emax was 910 ± 70%.

And the “NS9283 E31.6 µM” value ([6]; β-21a-α-α-β-α, […] NS9283 + 10 µM ACh, % change from AChcontrol current)?
Its value is 780 ± 90%.

What about the Emax ([7]; read-out: NS9283 Emax) of the same compound?
The Emax was 13 ± 1%.

And the “NS9283 E31.6 µM” value ([7]; β-3a-α-β-α-α^VFL, […] NS9283 + 10 µM ACh, % change from AChcontrol current)?
Its value is 11 ± 2%.

What about the EC50 ([8]; NS9283 pEC50, β-6a-α + α4^VFL, coapplied with 10 µM ACh) of the same compound?
Its EC50 is 10 µM.

And the “NS9283 E31.6 µM” value ([8]; β-6a-α + α4^VFL, […] NS9283 + 10 µM ACh, % change from AChcontrol current)?
Its value is 140 ± 10%.

And the EC50 ([9]; NS9283 pEC50, β-3a-α + α4^VFL, coapplied with 10 µM ACh)?
Its EC50 is 6.31 µM.

What about the “NS9283 E31.6 µM” value ([9]; β-3a-α + α4^VFL, […] NS9283 + 10 µM ACh, % change from AChcontrol current) of the same compound?
The value was 22 ± 3%.

What about the EC50 [10] of the same compound?
Its EC50 is 5.01 µM.

What about the Emax ([10]; read-out: NS9283 Emax) of the same compound?
The Emax was 48 ± 5%.

What about the “NS9283 E31.6 µM” value ([10]; β-21a-α-β-α-α^VFL, […] NS9283 + 10 µM ACh, % change from AChcontrol current) of the same compound?
Its value is 41 ± 4%.

And the “NS9283 E31.6 µM” value [11]?
Its value is 210 ± 20%.

And the EC50 ([12]; NS9283 pEC50, β-3a-α^VFL-β-α-α, coapplied with 10 µM ACh)?
Its EC50 is 6.31 µM.

What about the Emax ([12]; read-out: NS9283 Emax) of the same compound?
The Emax was 240 ± 20%.

And the “NS9283 Emax” value [13]?
The value was “no positive efficacy; also recorded: No pos. pot”.

And the EC50 ([14]; NS9283 pEC50, β-9a-α + α4^VFL, coapplied with 10 µM ACh)?
The EC50 was 10 µM.

And the “NS9283 E31.6 µM” value ([14]; β-9a-α + α4^VFL, […] NS9283 + 10 µM ACh, % change from AChcontrol current)?
Its value is 200 ± 10%.

What about the EC50 [15] of the same compound?
The EC50 was 10 µM.

What about the Emax ([15]; read-out: NS9283 Emax) of the same compound?
The Emax was 130 ± 30%.

What about the “NS9283 E31.6 µM” value ([15]; β-9a-α alone, […] NS9283 + 10 µM ACh, % change from AChcontrol current) of the same compound?
Its value is 100 ± 20%.

What about the EC50 [16] of the same compound?
The EC50 was 7.94 µM.

And the Emax ([16]; read-out: NS9283 Emax)?
The Emax was 800 ± 90%.

What about the “NS9283 E31.6 µM” value ([16]; β-3a-α-β-α-α, […] NS9283 + 10 µM ACh, % change from AChcontrol current) of the same compound?
Its value is 640 ± 90%.

What about the EC50 [17] of the same compound?
The EC50 was 3.98 µM.

What about the Emax ([17]; read-out: NS9283 Emax) of the same compound?
Its Emax is 51 ± 7%.

And the EC50 [18]?
The EC50 was 12.6 µM.

And the EC50 [19]?
Its EC50 is 7.94 µM.

And the “NS9283 E31.6 µM” value [20]?
The value was 860 ± 100%.

What about the EC50 [21] of the same compound?
The EC50 was 10 µM.

From PMC5839718 (The Journal of General Physiology, 2018)
